The record followed here is patent US7655396B1, “Methods for detecting receptor modulator activity” (Allergan, Inc., priority 2006, dated 2010).

“Also recorded” adds a separate entry of the source.

This experiment concerns the target T1, mouse alpha 2B receptor (m α2B) (Mus musculus, UniProt P30545).
T1 construct: expressed in transfected cells
T1 sequence (P30545 1-453): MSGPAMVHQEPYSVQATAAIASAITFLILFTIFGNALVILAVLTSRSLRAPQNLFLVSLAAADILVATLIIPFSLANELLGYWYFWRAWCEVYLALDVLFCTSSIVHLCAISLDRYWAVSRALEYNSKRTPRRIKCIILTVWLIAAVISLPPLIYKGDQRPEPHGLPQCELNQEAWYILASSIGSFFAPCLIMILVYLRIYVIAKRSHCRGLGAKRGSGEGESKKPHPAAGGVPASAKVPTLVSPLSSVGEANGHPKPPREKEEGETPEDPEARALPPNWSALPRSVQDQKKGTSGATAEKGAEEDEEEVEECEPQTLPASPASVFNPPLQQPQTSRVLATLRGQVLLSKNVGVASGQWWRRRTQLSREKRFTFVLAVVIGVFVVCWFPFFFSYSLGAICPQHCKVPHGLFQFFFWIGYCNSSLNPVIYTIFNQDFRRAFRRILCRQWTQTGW
Nature of the experiment: FLIPR calcium flux assay in HEK 293 m α2B/Gqi5 cells (Fluo-4 dye). Conditions: for activity (ratio of peak height divided by background fluorescence): FIGS. 3A-3C, room temperature, 1 to 10^4 nM, 384 well, FLIPR buffer without HEPES, commercial screening company. It is filed as cell-based. The source says:
This example describes the methodology used in assaying compounds for the ability to modulate the α2B receptor in a high throughput assay format in which the “readout” is the measurement of a change in intracellular calcium flux due to the use of the “promiscuous” Gqi5 hybrid G-protein, linking the α2B receptor (normally coupled to the adenylyl cyclase pathway) to the PLC pathway. Changes in intracellular calcium flux are monitored using a dye that becomes fluorescent when it binds free Ca^++ ion.
HEK 293 cells are stably co-transfected with two plasmids, the first encoding the mouse alpha 2B receptor (m α2B), and the second encoding the hybrid Gqi5 protein. […] The nucleotide sequence encoding the human Gqi5 protein is contained in the reference Aiyar et al., Human AT1 receptor is a single copy gene: characterization in a stable cell line. Mol. Cell. […] These references are hereby all incorporated by reference herein. […]
Each well of cells (in a 96 well microtiter dish) is assayed for activity in the FLIPR assay using the Fluo-4® calcium indicator dye to detect calcium flux. The structure of this dye, which can be purchased from Molecular Probes, Inc., is as follows:
The cells are loaded with this dye using the manufacturer's recommendations, and washed 3× with FLIPR Buffer. Assays are conducted at room temperature (unless otherwise indicated in the following examples). […] Only cells releasing Ca++ into the cytosol of the cells (thereby permitting Ca++ binding to the Fluo-4 dye) will have increased fluorescent emission at 520 nm.
Images of the illuminated cells are captured with a charge-coupled device (CCD) camera; CCD technology is adapted for producing high-resolution images in conditions of ultra low light. Images are collected at the rate of 60 images/minute (1 image per second) in each well. After 10 seconds, 50 μl of the test compound is pipetted into the well, and further images are collected at 1 second intervals for an additional 60 seconds, then at 15 second intervals for 4 minutes. Test compounds are prepared from 10^-2 M stocks in DMSO. Compounds are diluted in the FLIPR buffer to a final DMSO concentration of about 1%.
All images are stored on a computer hard drive for later retrieval and analysis.

The mark [1] stands for this setting: FIG. 1, assay carried out at 35° C., 96 well.
[2] abbreviates: FIG. 2, second experiment, 35° C., norepinephrine standard.

For the molecule `COc1ccccc1N1CCN(CCN2C(=O)c3ccccc3C(C)(C)C2=O)CC1` [ARC 239, reference compound], the “activity (ratio of peak height divided by background fluorescence)” value is given as “showed no ability to stimulate alpha 2B receptor activity”.
Take `c1ncc(CC2CCC3=C(CCCC3)C2)[nH]1` (centres unmarked) [Compound 1]: the “activity (ratio of peak height divided by background fluorescence)” value was “do not show activity to any significant degree”. Moreover, where the note is “32° C., FIG. 4B”, the EC50 came to 302 nM and the relative efficacy amounted to 30%. Besides, for the setting “35° C., FIG. 4C”, the EC50 is 321 nM and the relative efficacy turned out to be 40%. Besides, where the note is “37° C., FIG. 4D”, the concentration giving a half-maximal response (EC50) amounted to 67 nM and the relative efficacy amounted to 40%. Also, under setting [1], the half-maximal effective concentration (EC50) was determined as 238 nM and the “relative efficacy compared to a norepinephrine standard” value is listed as 40%. Moreover, for the setting “Room Temp., FIG. 4A”, the 50% effective concentration (EC50) was found to be 305 nM and the relative efficacy was 12%.
For `OCCNC(=S)NCc1cccc(Cl)c1F` [Compound 2], the “activity (ratio of peak height divided by background fluorescence)” value was “shows no activity; also recorded: very modest activity only at very high concentrations; also recorded: do not show activity to any significant degree”. Moreover, for the setting “32° C., FIG. 4B”, the half-maximal effective concentration (EC50) is 337 nM and the relative efficacy was 32%. For the same molecule, for the setting “35° C., FIG. 4C”, the EC50 was 318 nM and the relative efficacy is 31%. Moreover, under “37° C., FIG. 4D”, the EC50 was 65 nM and the relative efficacy stood at 30%. Under setting [1], the concentration giving a half-maximal response (EC50) amounted to 242 nM and the “relative efficacy compared to a norepinephrine standard” value worked out at 35%. In addition, the concentration giving a half-maximal response (EC50) (Room Temp., FIG. 4A) is over 1000 nM.
In the case of `O=C1C2=C(CCCC2)CCC1CC1CN=CN1` (centres unmarked) [Compound 3], the EC50 (FIG. 2, second experiment, 35° C., 96 well) is 129 nM. Further, under setting [2], the relative efficacy is 31%.
Regarding norepinephrine [reference compound], the “activity (ratio of peak height divided by background fluorescence)” value is “showed an activity ratio above background; also recorded: shows activity above background”. The relative efficacy under setting [2] is recorded as 90%.
